Assay results: ChEMBL document CHEMBL4433238, “2,4,5-Tris(alkoxyaryl)imidazoline derivatives as potent scaffold for novel p53-MDM2 interaction inhibitors: Design, synthesis, and biological evaluation” (Bioorg Med Chem Lett, 2019)
One block for each compound: values may come before it. Activity calls are given as the source filed them. No cut-off for these calls is given here.

Tests used:
A549 [1] = test: Cytotoxicity against human A549 cells at 1.56 to 100 uM after 72 hrs by MTT assay; type: functional, cell-based
A549 [2] = test: Cytotoxicity against human A549 cells assessed as reduction in cell viability after 72 hrs by MTT assay; type: functional, cell-based; settings: A549, 72 h
[3] = Solubility of compound in water; type: physicochemical; settings: buffer
A549 [4] = test: Induction of apoptosis in human A549 cells assessed as increase in PARP cleavage at 40 uM after 24 hrs by Western blot analysis; type: functional, cell-based
A549 [5] = test: Induction of apoptosis in human A549 cells assessed as caspase-3 p17/19 active fragment generation at 40 uM after 24 hrs by Western blot analysis; type: functional, cell-based
A549 [6] = test: Induction of apoptosis in human A549 cells assessed as increase in necrotic cells at 40 to 80 uM incubated for 24 hrs by Annexin V-FITC/propidium iodide staining based flow cytometry relative to control; type: functional
A549 [7] = test: Induction of apoptosis in human A549 cells assessed as necrotic cells up to 80 uM incubated for 24 hrs by Annexin V-FITC/propidium iodide staining based flow cytometry; type: functional, cell-based
A549 [8] = test: Induction of necrosis in human A549 cells at >20 uM after 24 hrs by Annexin V-FITC/propidium iodide staining based flow cytometry; type: functional, cell-based
A549 [9] = test: Induction of apoptosis in human A549 cells assessed as cell death at 80 uM after 24 hrs by Annexin V-FITC/propidium iodide staining based flow cytometry; type: functional
A549 [10] = test: Induction of apoptosis in human A549 cells assessed as increase in apoptotic cells at 80 uM incubated for 24 hrs by Annexin V-FITC/propidium iodide staining based flow cytometry; type: functional, cell-based
A549 [11] = test: Induction of apoptosis in human A549 cells assessed as cell death up to 40 uM after 24 hrs by Annexin V-FITC/propidium iodide staining based flow cytometry; type: functional
A549 [12] = test: Induction of apoptosis in human A549 cells assessed as caspase-3 p17/19 active fragment generation at 80 uM after 24 hrs by Western blot analysis; type: functional, cell-based
A549 [13] = test: Induction of apoptosis in human A549 cells assessed as increase in PARP cleavage at 80 uM after 24 hrs by Western blot analysis; type: functional, cell-based
A549 [14] = test: Induction of apoptosis in human A549 cells assessed as increase in apoptotic cells up to 40 uM incubated for 24 hrs by Annexin V-FITC/propidium iodide staining based flow cytometry; type: functional, cell-based
[15] = target: Tumour suppressor p53/oncoprotein Mdm2 (Homo sapiens) (UniProt P04637+Q00987); test: Inhibition of MDM2/P53 interaction in human A549 cells assessed as increase in p53 level at 10 to 20 uM after 24 hrs by Western blot analysis; type: cell-based
Sequence of Tumour suppressor p53/oncoprotein Mdm2 (Homo sapiens) (P04637 whole entry, looked up): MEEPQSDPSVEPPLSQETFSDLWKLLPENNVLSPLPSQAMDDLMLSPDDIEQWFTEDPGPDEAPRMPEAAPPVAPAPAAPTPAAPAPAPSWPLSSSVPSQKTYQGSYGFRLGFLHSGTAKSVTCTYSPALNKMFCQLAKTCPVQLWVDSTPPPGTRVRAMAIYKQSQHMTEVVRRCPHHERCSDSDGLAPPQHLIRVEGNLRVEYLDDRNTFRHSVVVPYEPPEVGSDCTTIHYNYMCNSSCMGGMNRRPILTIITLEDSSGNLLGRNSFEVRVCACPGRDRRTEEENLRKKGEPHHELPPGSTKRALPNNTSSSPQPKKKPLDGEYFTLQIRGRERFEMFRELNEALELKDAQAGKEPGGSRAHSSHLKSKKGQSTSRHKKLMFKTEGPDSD
Sequence of Tumour suppressor p53/oncoprotein Mdm2 (Homo sapiens) (Q00987 whole entry, looked up): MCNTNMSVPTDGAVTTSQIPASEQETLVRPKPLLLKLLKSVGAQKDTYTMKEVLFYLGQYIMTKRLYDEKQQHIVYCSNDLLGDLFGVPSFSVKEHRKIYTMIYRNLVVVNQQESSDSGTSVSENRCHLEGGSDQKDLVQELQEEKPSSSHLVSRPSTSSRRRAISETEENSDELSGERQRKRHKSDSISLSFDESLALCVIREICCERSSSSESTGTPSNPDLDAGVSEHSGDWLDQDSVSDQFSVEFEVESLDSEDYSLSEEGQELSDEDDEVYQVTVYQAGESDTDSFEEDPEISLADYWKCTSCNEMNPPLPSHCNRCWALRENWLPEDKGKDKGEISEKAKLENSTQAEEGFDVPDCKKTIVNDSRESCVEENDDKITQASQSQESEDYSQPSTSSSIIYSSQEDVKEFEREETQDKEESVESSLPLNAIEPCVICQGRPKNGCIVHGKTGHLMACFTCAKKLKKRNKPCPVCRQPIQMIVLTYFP

SMILES: Oc1ccc(O)c(C2=N[C@H](c3cc(O)ccc3O)[C@H](c3cc(O)ccc3O)N2)c1
Activity (A549 [1]): inactive

solubility [3]: Insoluble
SMILES: Clc1ccccc1C1=N[C@H](c2ccccc2Cl)[C@H](c2ccccc2Cl)N1
IC50 (A549 [2]): 10.7 µM

SMILES: Clc1ccc(C2=N[C@H](c3ccc(Cl)c(Cl)c3)[C@H](c3ccc(Cl)c(Cl)c3)N2)cc1Cl
IC50 (A549 [2]): 13.7 µM

SMILES: CCOc1ccc(C2=N[C@H](c3ccc(OCC)cc3)[C@H](c3ccc(OCC)cc3)N2)cc1
Activity (A549 [4]): Active | Activity (A549 [5]): Active | Activity (A549 [6]): <=70% | Activity (A549 [7]): Active | Activity (A549 [8]): Active | Activity (A549 [9]): Active | IC50 (A549 [2]): 13.3 µM

solubility [3]: Insoluble
SMILES: Brc1ccc(C2=N[C@H](c3ccc(Br)cc3)[C@H](c3ccc(Br)cc3)N2)cc1
IC50 (A549 [2]): 9.05 µM

SMILES: COc1ccc(C2=N[C@H](c3ccc(OC)cc3OC)[C@H](c3ccc(OC)cc3OC)N2)c(OC)c1
Activity (A549 [7]): inactive | Activity (A549 [10]): Active | Activity (A549 [11]): inactive | Activity (A549 [12]): inactive | Activity (A549 [13]): inactive | Activity (A549 [14]): inactive | IC50 (A549 [2]): 9.32 µM

SMILES: COc1ccc(C2=N[C@H](c3ccc(OC)c(OC)c3)[C@H](c3ccc(OC)c(OC)c3)N2)cc1OC
IC50 (A549 [2]): 84.7 µM

SMILES: Fc1ccc(C2=N[C@H](c3ccc(F)cc3)[C@H](c3ccc(F)cc3)N2)cc1
IC50 (A549 [2]): 108 µM

SMILES: COc1cc(C2=N[C@H](c3cc(OC)c(OC)c(OC)c3)[C@H](c3cc(OC)c(OC)c(OC)c3)N2)cc(OC)c1OC
Activity (A549 [1]): inactive

SMILES: COc1ccc(C2=N[C@H](c3ccc(OC)cc3)[C@H](c3ccc(OC)cc3)N2)cc1
Activity (A549 [7]): inactive | Activity (A549 [10]): Active | Activity (A549 [11]): inactive | Activity (A549 [12]): inactive | Activity (A549 [13]): inactive | Activity (A549 [14]): inactive | IC50 (A549 [2]): 43.9 µM

SMILES: COc1ccc(C2=N[C@H](c3ccc(O)cc3)[C@H](c3ccc(O)cc3)N2)cc1
Activity (A549 [1]): inactive

SMILES: Clc1ccc(C2=N[C@H](c3ccc(Cl)cc3Cl)[C@H](c3ccc(Cl)cc3Cl)N2)c(Cl)c1
IC50 (A549 [2]): 164 µM

SMILES: Clc1ccc(C2=N[C@H](c3ccc(Cl)cc3)[C@H](c3ccc(Cl)cc3)N2)cc1
Activity (A549 [4]): Active | Activity (A549 [5]): Active | Activity (A549 [6]): <=70% | Activity (A549 [7]): Active | Activity (A549 [8]): Active | Activity (A549 [9]): Active | IC50 (A549 [2]): 20.2 µM

SMILES: CCOc1c(OC)cccc1C1=N[C@H](c2cccc(OC)c2OCC)[C@H](c2cccc(OC)c2OCC)N1
IC50 (A549 [2]): 24.3 µM

inhibition [15]: inactive
SMILES: COc1ccc(OC)c(C2=N[C@H](c3cc(OC)ccc3OC)[C@H](c3cc(OC)ccc3OC)N2)c1
IC50 (A549 [2]): 21.4 µM

inhibition [15]: inactive
SMILES: COc1cccc(C2=N[C@H](c3cccc(OC)c3OC)[C@H](c3cccc(OC)c3OC)N2)c1OC
IC50 (A549 [2]): 16.2 µM

SMILES: Oc1ccc(C2=N[C@H](c3ccc(O)cc3)[C@H](c3ccc(O)cc3)N2)cc1
Activity (A549 [1]): inactive

SMILES: Oc1ccccc1C1=N[C@H](c2ccccc2O)[C@H](c2ccccc2O)N1
IC50 (A549 [2]): 311 µM

SMILES: COc1cccc(C2=N[C@H](c3cccc(OC)c3)[C@H](c3cccc(OC)c3)N2)c1
IC50 (A549 [2]): 64.3 µM

SMILES: CCOc1ccc(C2=N[C@H](c3ccc(OCC)c(OC)c3)[C@H](c3ccc(OCC)c(OC)c3)N2)cc1OC
IC50 (A549 [2]): 67.5 µM

SMILES: COc1ccccc1C1=N[C@H](c2ccccc2OC)[C@H](c2ccccc2OC)N1
IC50 (A549 [2]): 27.4 µM
